Source: patent US7521449B2, “4-arylmorpholin-3-one derivatives, their preparation and therapeutic use thereof” (Sanofi-Aventis, priority 2004, dated 2009)
Where a name gives a salt, the structure may show the parent alone.

Assays:
[1] = target: T1, NK2 receptor (Mus musculus, UniProt P30549); test: Spinning behavior caused by injection of [Nle10]NKA(4-10) into the striatum of mice, compounds administered orally; format: in vivo
T1 construct: from tissue; host or cells: mouse striatum (in vivo)
T1 sequence (P30549 1-384): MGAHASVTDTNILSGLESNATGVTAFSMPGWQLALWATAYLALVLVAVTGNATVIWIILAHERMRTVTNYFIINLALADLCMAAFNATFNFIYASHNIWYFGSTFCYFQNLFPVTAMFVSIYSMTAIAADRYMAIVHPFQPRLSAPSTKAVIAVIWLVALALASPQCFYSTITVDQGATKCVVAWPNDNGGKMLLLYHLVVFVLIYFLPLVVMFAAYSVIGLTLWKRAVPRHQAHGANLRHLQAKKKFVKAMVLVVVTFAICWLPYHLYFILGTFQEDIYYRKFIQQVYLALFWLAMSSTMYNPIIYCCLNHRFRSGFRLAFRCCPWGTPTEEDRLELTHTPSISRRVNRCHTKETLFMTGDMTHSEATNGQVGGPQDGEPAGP
Experimental: The compounds of the present invention were also evaluated in vivo in a model of pharmacodynamics.
In mice, injection into the striatum of a specific agonist of the NK2 receptor, [Nle^10]NKA(4-10), causes a spinning behavior, which is inhibited in a dose-dependent manner by the compounds according to the invention administered orally. This test was performed according to Poncelet et al. (Neurosci. Lett., 1993, 149, 40-42).

[2] = target: T2, cloned human NK2 receptors (Homo sapiens, UniProt P21452); test: Inhibition of the binding of [125I]His-neurokinin A to cloned human NK2 receptors expressed by CHO cells; conditions: binding of [125I]His-NKA, cloned human NK2 receptors expressed in CHO cells; read-out: inhibition constant Ki
T2 construct: expressed in transfected cells; host or cells: CHO cells
T2 sequence (P21452 1-398): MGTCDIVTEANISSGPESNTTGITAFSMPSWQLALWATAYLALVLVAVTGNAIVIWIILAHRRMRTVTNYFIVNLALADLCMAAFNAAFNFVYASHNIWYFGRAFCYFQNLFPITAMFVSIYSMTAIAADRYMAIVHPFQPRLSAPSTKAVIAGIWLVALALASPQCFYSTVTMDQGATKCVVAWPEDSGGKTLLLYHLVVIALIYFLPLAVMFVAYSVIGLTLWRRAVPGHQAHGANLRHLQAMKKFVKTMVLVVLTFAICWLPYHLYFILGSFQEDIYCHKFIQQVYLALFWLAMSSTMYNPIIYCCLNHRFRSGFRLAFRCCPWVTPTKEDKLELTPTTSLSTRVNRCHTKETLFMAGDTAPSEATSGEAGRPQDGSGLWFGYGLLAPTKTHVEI
Experimental: The affinity of the compounds for the tachykinin receptors NK2 was evaluated in vitro by measuring the inhibition of the binding of [^125I]His-neurokinin A ([^125I]His-NKA) to cloned human NK2 receptors expressed by CHO cells (Y. Takeda et al., J. Neurochem., 1992, 59, 740-745).
The trials were performed according to […]

With `CC(=O)NC1(c2cccc(F)c2)CCN(CCC2(c3ccc(Cl)c(Cl)c3)CN(c3ccccc3)C(=O)CO2)CC1` (single isomer, unassigned) [Compound 3, N-[1-[2-[2-(3,4-Dichlorophenyl)-5-oxo-4-phenylmorpholin-2-yl]ethyl]-4-(3-fluorophenyl)piperid-4-yl]acetamide hydrochloride, dextrorotatory isomer] the “antagonism of the NK2 receptors (blocking the pharmacological effects caused by neurokinin A)” value ([1]; conclusion from the pharmacological results) was “antagonists of the NK2 receptors”, the ED50 ([1]; mouse, po, mice, orally, spinning behavior caused by intrastriatal [Nle10]NKA(4-10), read-out: 50 effective dose (ED50)) was 0.023 mg/kg and the Ki [2] was 0.16 nM.
